Results as given in paper PMC6471242, “Dereplication by High-Performance Liquid Chromatography (HPLC) with Quadrupole-Time-of-Flight Mass Spectroscopy (qTOF-MS) and Antiviral Activities of Phlorotannins from Ecklonia cava” (Marine Drugs, 2019).
Entries after “also recorded” stand apart in the source; their conditions may differ.

Experiments:
[1] = Cytotoxicity assay (MTT); settings: dog
[2] = test system: neuraminidase; test: Western blot of viral protein synthesis in H1N1-infected MDCK cells, neuraminidase; settings: 5, 10, 20, and 40 μM, 24 h
[3] = test system: hemagglutinin; test: Western blot of viral protein synthesis in H1N1-infected MDCK cells, hemagglutinin; settings: 5, 10, 20, and 40 μM, 24 h
[4] = in vitro; settings: dog

SMILES | CC50 at 48 h [1] | inhibition of neuraminidase expression (viral protein synthesis, Western blot) [2] | inhibition of hemagglutinin expression (viral protein synthesis, Western blot) [3] | CC50 at 48 h [4]
Oc1cc(O)cc(Oc2c(O)cc(O)c3c2Oc2c(O)cc4oc5c(Oc6cc(O)cc(O)c6)c(O)cc(O)c5c4c2O3)c1 [Compound 12, Phlorofucofuroeckol A] | > 100 µM | decreased the expression of neuraminidase and hemagglutinin at 10 μM; also recorded: strongest inhibition capacity was observed at 40 µM; also recorded: strong inhibitory effects | decreased the expression of neuraminidase and hemagglutinin at 10 μM; also recorded: strongest inhibition capacity was observed at 40 µM; also recorded: strong inhibitory effects | –
Oc1cc(O)c2c(c1)Oc1c(O)cc(O)cc1O2 [Compound 13, Dibenzo[1,4]dioxine-2,4,7,9-tetraol] | > 100 µM | – | – | –
Oc1cc(O)cc(Oc2c(O)cc(O)c3c2Oc2c(O)cc(Oc4c(O)cc(Oc5c(O)cc(O)c6c5Oc5c(O)cc(O)cc5O6)cc4O)cc2O3)c1 [Compound 11, Dieckol] | > 100 µM | – | – | –
Oc1cc(O)c2oc3cc(O)c4oc5cc(O)cc(O)c5oc4c3oc2c1 [Compound 14, Dioxinodehydroeckol] | – | – | – | > 100 µM
